# Several values for one entry are separate records, joined by “and”; a condition that tells them apart may be missing. Equal values may be shown once.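 Compound exposure: 48 hours, 5 concentrations, 96-well plates. GI50 = concentration required for 50% inhibition of growth. TGI marks complete inhibition of growth.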
# Assays:
# Test in all cases: growth of human tumour cells (NCI), 48 h
# [1] = tested on: SR leukemia
# [2] = tested on: SNB-19 CNS
# [3] = tested on: HT29 colon
# [4] = tested on: SK-MEL-5 melanoma
# [5] = tested on: HL-60(TB) leukemia
# [6] = tested on: 786-0 renal
# [7] = tested on: SK-MEL-2 melanoma
# [8] = tested on: CCRF-CEM leukemia
# [9] = tested on: M14 melanoma
# [10] = tested on: MDA-N
# [11] = tested on: NCI-H522 lung
Structure (SMILES),TGI [1] [µM],TGI [2] [µM],TGI [3] [µM],TGI [4] [µM],TGI [5] [µM],TGI [6] [µM],TGI [7] [µM],TGI [8],TGI [9] [µM],TGI [10] [µM],TGI [11] [µM],GI50 [5] [µM]
Cc1ccc(S(=O)(=O)N(CC(O)COc2ccccc2)c2ccc(F)cc2F)cc1 (stereo unspecified),73.6,41.9,29.4,27.8,57.6,31,30.4,53.8 µM,34.1,29.8,–,–
O=c1cc(NCc2ccncc2)[nH]c(=O)[nH]1,> 100,> 100,> 100,> 100,> 100,> 100,> 100,> 100 µM,> 100,> 100,> 100,–
COC(=O)CCCC(=O)NC1=C(NCc2ccccc2)C(=O)c2ccccc2C1=O,> 100,> 100,–,–,77.3,> 100,> 100,> 100 µM,> 100,> 100,> 100,–
CC1OC2OC3C(OCC(O)C3O)OC(=O)[C@]34CCC(C)(C)CC3C3=CCC5[C@@]6(C)C[C@H](O)[C@H](OC7OC(CO)C(O)C(O)C7OC7OCC(OC(=O)CC(C)(O)CC(=O)OC1C(OC1OC(CO)C(O)C(O)C1O)C2O)C(O)C7O)[C@@](C)(CO)C6CC[C@@]5(C)[C@]3(C)CC4 (stereo partly specified),17,22.9,19.4,28.8,6.29,15.5,13.5,28 µM,15,7.76,22.5,–
CCOC(=O)C(=O)C(=O)NN(C)C1=NCCN1,> 100,> 100,> 100,> 100,> 100,> 100,> 100,> 100 µM,> 100,> 100,> 100,–
O=C(c1ccco1)N(C(=S)OC12CC3CC(CC(C3)C1)C2)c1ccccc1,97.9,> 100,> 100,35.5,63.6,93.4,40.9,59.5 µM,43.7,83.9,51.8,–
COC1(OC)c2no[n+]([O-])c2C(OC)(OC)c2c1no[n+]2[O-],31.6,59.5,37.7,28.6,87.6,48.9,42,60.4 µM,26.9,62.8,47.5,–
COc1ccc(C(O)CC(O)(C(F)(F)F)C(F)(F)F)cc1 (stereo unspecified),56.3,> 100,> 100,36.2,37,> 100,40.8,45.7 µM,> 100,> 100,> 100,–
C(/Cc1ccc2c(c1)OCO2)=N\NC1=NCCCN1,70.2,> 100,> 100,56.4,> 100,> 100,> 100,> 100 µM,> 100,> 100,> 100,–
CCCNc1ncnc2[nH]ncc12,> 100,> 100,> 100,> 100,> 100,> 100,> 100,> 100 µM,> 100,> 100,> 100,–
Cc1ccc(/C(O)=C/c2nc3ccc([N+](=O)[O-])cc3nc2/C=C(\O)c2ccc(C)cc2)cc1,> 100,> 77.1,> 100,> 100,> 100,> 100,> 100,> 100 µM,> 100,> 100,> 100,–
CC(C)(C)OC(=O)n1cc(C2CN(O)C(=O)C23CCC(=O)N3Cc2ccccc2)c2ccccc21 (stereo unspecified),> 100,> 100,> 100,> 100,> 100,> 100,35.7,> 100 µM,> 100,> 100,31.7,–
O=C1CC(n2cccc2)c2c(Br)sc(Br)c21 (stereo unspecified),12,28.1,32.1,29.6,41.4,43.8,29.1,26.8 µM,30.2,31.6,3.27,–
CN(C)c1ccc(/C=C2\N=C(c3ccccc3)N(c3ccc4c(c3)Sc3cc(N5C(=O)/C(=C/c6ccc(N(C)C)cc6)N=C5c5ccccc5)ccc3N4)C2=O)cc1,> 100,31.3,> 100,32.1,61.9,45.6,38.3,20.1 µM,40.7,> 100,–,–
C=C(C)[C@@H]1CC[C@]2(C(=O)O)CC[C@]3(C)[C@H](CCC4[C@@]5(C)CC[C@H](C(=O)/C=C/c6ccc(O)c(O)c6)C(C)(C)[C@@H]5CC[C@]43C)[C@@H]12 (stereo partly specified),> 100,> 100,–,18.8,> 100,30.2,38,> 100 µM,14.7,15.9,–,–
O=C(NNCc1ccc(Cl)cc1)Nc1cccc2ccccc12,> 100,> 100,> 100,> 100,> 100,> 100,> 100,> 100 µM,> 100,> 100,> 100,–
Cc1nc(-c2cc3cc(Cl)ccc3oc2=O)cc2c1c(=O)oc1ccc(Cl)cc12,> 100,> 100,> 100,> 100,> 100,> 100,> 100,> 100 µM,> 100,> 100,> 100,–
c1ccc(-c2nnn(CCN3CCCCC3)n2)cc1,> 100,> 100,> 100,> 100,> 100,> 100,> 100,> 100 µM,> 100,> 100,> 100,–
CCN(CC)c1ccc2cc(-c3nc4ccccc4c(=O)[nH]3)c(=N)oc2c1,> 100,> 100,> 100,> 100,> 100,> 100,> 100,> 100 µM,> 100,> 100,> 100,–
NCCOCC(N)C(=O)O (stereo unspecified),> 100,> 100,> 100,> 100,> 100,> 100,> 100,> 100 µM,> 100,> 100,> 100,–
CS(=O)(=O)NC12CCC(c3ccccc31)c1ccccc12,> 100,> 100,> 100,> 100,> 100,> 100,> 100,> 100 µM,> 100,> 100,> 100,–
CCOC(=O)c1cnccc1CC1(C#N)c2ccccc2C=CN1C(=O)c1ccccc1 (stereo unspecified),92.7,> 100,36,37.8,> 100,> 100,41.4,> 100 µM,79.1,45.8,54.8,–
Cc1nc2ccc(Cl)cc2c2c1CCN2c1ccccc1,36.3,78.5,> 100,20.7,11.1,25.2,–,23.1 µM,–,10.1,28.1,–
CSc1ccc(/C=C2\N=C(c3ccccc3)N(/N=C/c3cc4cc(C)ccc4nc3Cl)C2=O)cc1,44.2,43.1,62.1,32.9,47.5,35.1,43.7,> 100 µM,38.4,34.5,–,–
CC(C)(C)C1CC[C@H](O)[C@H]([C@H](O)CC2CC(=O)N(c3ccccc3)C(=O)C2)C1 (stereo partly specified),> 100,> 100,> 100,> 100,> 100,> 100,–,> 100 µM,> 100,> 100,> 100,–
CCN(CC)CCN(C(=O)C(C)(C)C)c1ccccc1N,> 100,> 100,> 100,> 100,> 100,> 100,–,> 100 µM,> 100,> 100,> 100,–
Cc1ccc(S(=O)(=O)n2cc(C#N)c(C#N)c2)cc1,71,–,65.9,42,71.6,> 100,52,92.1 µM,47.7,70.7,40,–
CCOC(=O)C1(C(F)(F)F)N=C(CC)OC(N2CCOCC2)=N1 (stereo unspecified),> 100,> 100,> 100,> 100,> 100,–,> 100,> 100 µM,> 100,> 100,> 100,–
CCOP(=O)(OCC)C(C)(CC)NC(=O)C(C(F)(F)F)C(F)(F)F (stereo unspecified),> 100,> 100,> 100,> 100,64.6,> 100,> 100,48.7 µM and 53.1 µM,> 100,> 100,–,25.8

# — PubChem BioAssay (NCI)
